Patent publication US20240082331A1, “ANTI-OBESITY COMPOSITION CONTAINING, AS ACTIVE INGREDIENT, MORINGA OLEIFERA FERMENTATION PRODUCT PREPARED USING NOVEL MONASCUS PURPUREUS SL1” (MBIOMETHERAPEUTICS CO., LTD., priority 2021, published 2024)

System: 3T3-L1 preadipocytes
Assay: Inhibition of adipocyte differentiation (AdipoRed assay)
Format: cell-based, mice
Details: FIG. 3
Description: Preadipocytes (3T3-L1) from mice were purchased from ATCC (American Type Culture Collection). DMEM culture medium, Trypsin/EDTA, FBS (fetal bovine serum), and BCS (Bovine calf serum) were purchased from Gibco (Invitrogen corporation). AdipoRed assay reagent for measurement was purchased from Cambrex. Specifically, 3T3-L1 preadipocytes were cultured in DMEM medium containing 10% BCS and antibiotics, and maintained in a CO 2 incubator with 5% carbon dioxide supply. The cells were seeded at a concentration of 1×10^6 cells in a 96-well plate and cultured until they reached 100% confluency. To measure adipocyte differentiation, the cells were treated with MD medium (0.5 mM 3-isobutyl-1-methylxanthine and 1 μM dexamethasone). After 2 days, the medium was replaced with DMEM medium containing 10% FBS, and further cultured for 6 days. Moringa powder and fermented Moringa extract were treated at various concentrations. […] After 10 minutes, fluorescence intensity was measured using a fluorescence intensity reader. Subsequently, the inhibitory effect on adipocyte differentiation in the six compounds isolated in Example 2 was measured. […]

CC(=O)OC[C@H]1O[C@@H](Oc2c(-c3ccc(O)cc3)oc3cc(O)cc(O)c3c2=O)[C@H](O)[C@@H](O)[C@@H]1O [MOFE-16-5, 6″-O-acetyl astragalin]
adipocyte differentiation inhibition activity of isolated compounds: excellent adipocyte differentiation inhibition activity
